In patent publication US11654110B2, “Composition and methods for the treatment of peripheral nerve injury” (UNIVERSITY OF ROCHESTER, priority 2013, dated 2023):

Experiments:
compressed nerves = assay: Nerve conduction velocity of chronically compressed nerve (sleeve around the nerve); assay type: in vivo, mice; conditions: 4-AP IP single bolus; 7, 9, 12 weeks of compression
Description: FIGS. 1A, 1B and 1C show graphs of nerve conduction velocity at 7 weeks (FIG. 1A), 9 weeks (FIG. 1B) and 12 weeks (FIG. 1C) of compression and treatment with high dose 4-AP (HD), low dose of 4-AP (LD), and saline (Sal). 4-AP was administered IP in a single dose as a bolus.
The concept that 4-AP may have a role in the treatment of compressed nerves emanates from data showing that the conduction velocity of compressed nerves can respond strongly to pharmacologic treatment with this agent. […] Therefore, 4-AP may be used locally or systemically for the treatment of chronic compression injury.

crushed sciatic nerve [1] = assay: Sciatic nerve crush injury, sciatic function index (SFI) by walking track analysis; assay type: in vivo, mice
Description: There are also possible effects of the 4-AP on nerve injuries suffered more acutely. Acute nerve injury is both common and difficult to treat. One type of acute peripheral nerve injury with a murine model available for study is the sciatic nerve crush injury model in mice and rats. In this model, the nerve is crushed with a variable amount of force which creates a measurable functional deficit in gait. This deficit is measured using a sciatic function index which is an accepted and validated measure of the functional effects of the injury.
(§1) Mouse Model of Peripheral Nerve Injury. All procedures were approved by the University of Rochester Committee on Animal Resources. Female 10-week-old C57BL6 mice were performed sciatic nerve crush injury on the left hindlimb and the sham-surgery on the other one. All extensive surgery procedures were as described previously (Elfar et al., The Journal of Bone and Joint Surgery, 90: 1644-1653 (2008)). rhEPO was administered immediately at a dose of 5000 U/kg (Juul, Acta Paediatrica 91:36-42 (2002), Bianchi et al., PNAS 101:823-828 (2004), and Elfar et al., The Journal of Bone and Joint Surgery, 90:1644-1653 (2008)).
Sciatic Function Index (SFI) Determined by Walking Track Analysis. The assessment of motor function recovery was performed by calculating the sciatic function index (SFI). Walking track analysis was performed according to a published model that quantifies sciatic nerve function performance (de Medinaceli et al., Exp. Neurol. 77:634-643 (1982)). The operating procedure is extensively described previously (Elfar et al., The Journal of Bone and Joint Surgery, 90:1644-1653 (2008)). In brief, individual mouse footprints were obtained by painting each foot and walked down the 50 cm path in a narrow corridor lined with paper. Gaits were measured from the resulting footprints to get (1) toe spread (TS) (first through fifth toes), (2) print length (PL), and (3) intermediate toe spread (ITS) (second, third, and fourth toes) of both limbs (Gladman et al., The Journal of Neuroscience, 32:563-571 (2012)). All three measurements from the three most clearly inked foot prints per run were taken from the normal (N) and experimental (E) sides, and the SFI were calculated using the following formula: SFI=−38.3((EPL−NPL)/NPL)+109.5((ETS−NTS)/NTS)+13.3((EIT−NIT)/NIT)−8.8 where E is the injured limb and N is the control limb.

[2] = intravenous and oral gelatin-based capsule treatments; cited from earlier work
[3] = tested on: Schwann cell-DRG neuron co-cultures; assay: DRG neuron and Schwann cell myelinating co-cultures, MBP+ myelin quantification; assay type: cell-based
Description: Primary Schwann Cell Culture.
Dorsal Root Ganglia (DRG) Neuron Cell Culture. DRG neurons were isolated from E18 embryos of Sprague-Dawley rats and 5,000 neurons were seeded in laminin/poly-L-lysine coated 48 well plates. Primary DRG neurons were maintained in Neurobasal media supplemented with B27 containing antioxidants, 50 ng/mL NGF, and 1 μM Ara-C. 1 μM Ara-C treatment was performed three times for two days each time following two days of fresh medium without Ara-C to eliminate fibroblasts. After two weeks, DRG neurons with extensive axons were seeded with Schwann cells for myelination tests (Syed et al., The Journal of Neuroscience 30:6122-6131 (2010)).
DRG Neuron and Schwann Cell Myelinating Co-cultures. Thirty thousand (30,000) Schwann cells were plated onto the DRG neurons per well. Co-cultures were maintained in differentiation media (DMEM/F12 (1:1), 50 ng/mL NGF, 1× N2 supplement) for a week. Co-cultures were then changed to myelinating medium (MEM, 50 ng/mL NGF, 50 μg/mL ascorbic acid, 10% FBS) for two weeks. Medium was changed every two days (Syed et al., The Journal of Neuroscience 30:6122-6131 (2010)). EPO was added three times at day 6 of differentiating stage, day 1, and day 3 of myelinating stage.
Myelin Quantification. To quantify the extent of myelination in co-cultures, the total number of MBP+ myelin was counted within the whole culture well and normalized by the total cell number (DAPI+).
To determine whether EPO enhances Schwann cell-mediated myelination directly we exposed Schwann cell-DRG neuron co-cultures to various concentrations of EPO (1, 10, 100 unit/mL of EPO). In FIG. 15A, every single short thread-like MBP+ staining cells representing a myelin formed by a single myelinating Schwann cell wrapped around the axon.

[4] = tested on: glutathione S-transferase and gamma-glutamylcysteine synthetase; conditions: 100 U/mL EPO, isolated Schwann cell cultures
Description: (unpaired t-test, n=4, p<0.01) FIG. 15D is a gel image of immunoblotting of glutathione S-transferase and gamma-glutamylcysteine synthetase levels in Schwann cells with 100 U/mL EPO treatment.

crushed sciatic nerve [5] = assay: Immunofluorescent staining of myelinated (P0+) and total (neurofilament+) axons in crushed sciatic nerve; assay type: in vivo, mice; conditions: systemic EPO directly after crush; 7 days post-injury
Text: FIGS. 14A, 14B, and 14C are images and a graph showing EPO supported preservation of myelin within crushed nerves. FIG. 14A is an image of the immunofluorescent staining of destroyed myelin sheath at the injured site 7 days post-injury. FIG. 14B is an image showing immunofluorescent staining of myelinated axons and total axons in the cross sections of sciatic nerves 7 days post-injury. Representative images of the cross sections of the sciatic nerves (a, d: healthy nerve; b, c, e, f: crushed nerve). FIG. 14C is a graph showing the ratio of the number of myelinated axon to total axons of crushed sciatic nerves with or without EPO administration. (unpaired t-test, n=3, three animals for each set, p<0.01).
as §1
To work towards the underlying action by which EPO works, it was noticed that the speed of recovery in injured mice was too rapid to be attributable to axonal regeneration. 4-aminopyridine (4-AP) is a potassium channel blocker which enables demyelinated axons to conduct impulses, and thus can be used to identify injuries in which whether there exist anatomically intact but demyelinated axons. Mice receiving a sciatic nerve crush injury, performed poorly in SFI tests 3 days after injury. […] The effect of 4-AP raises the possibility that the benefits of EPO may be due to preservation of myelin and/or improvement of remyelination. […] In untreated mice only 25% of axons (neurofilament+) were associated with myelin (P0+) whereas EPO treatment raised this ratio to 60%.

Nc1ccncc1 [4-AP, 4-aminopyridine]
conduction velocity of compressed nerve (ratio to contralateral uninjured nerve) (compressed nerves): strong effects of 4-AP administration was seen
sciatic function index (gait) (crushed sciatic nerve [1]; 4-AP administered systemically on day 3 or day 5 after crush injury): large improvement in the function of the animals gait
SFI (crushed sciatic nerve [1]; intraperitoneal 100 μg 4-AP, 3 days after injury): significant transient improvement in SFI
plasma half-life [2]: 3 to 4 h
time to maximum plasma concentration [2]: about 1 hour

CC(=O)NC(C(=O)O)C(C)(C)SN=O (racemic) [SNAP, S-Nitroso-N-acetyl-DL-penicillamine, reference compound]
baseline myelination ([3]; 100 μM SNAP): robust decrease in baseline myelination
cell death ([3]; 100 μM SNAP): significant cell death was not observed

EPO: Recombinant human erythropoietin, 30.4-kDa hematopoietic glycoprotein
glutathione S-transferase and gamma-glutamylcysteine synthetase levels [4]: up-regulated
myelin formation under NO stress ([3]; 100 μM SNAP with 100 U/mL EPO): notably recovered myelin formation
total number of MBP+ myelin ([3]; 1, 10, 100 unit/mL of EPO): increased the total number of the MBP+ myelin in co-culture and was found to be dose-dependent
number of axons (crushed sciatic nerve [5]): without significantly altering the number of axons
number of myelinated fibers versus untreated (crushed sciatic nerve [5]): almost tripled
ratio of myelinated (P0+) axons to total axons (neurofilament+) (crushed sciatic nerve [5]): 60%
functional improvements in SFI over control groups (crushed sciatic nerve [1]; local EPO in fibrin glue vehicle at the site of crush injury, 0.5 U): 15%
SFI function, higher than in untreated animals (crushed sciatic nerve [1]; single subcutaneous EPO 5000 U/kg directly after injury, 7 days after injury): 20%
SFI more restored compared to control group (crushed sciatic nerve [1]; single subcutaneous EPO 5000 U/kg directly after injury, day 14 after injury): 15%
hind limb / foot appearance (crushed sciatic nerve [1]; systemic EPO 5000 U/kg, seven days post-surgery): close-to-normal appearance
